Read-outs that look alike come from different tables or passages of the source.
Tests used:
[1] = tested on: Glomerella lacenarium (Colletotrichum lacenarium); experiment: Glomerella lacenarium (Colletotrichum lacenarium) liquid culture / cucumber / preventative (anthracnose); format: cell-based; conditions: read-out: disease control (inhibition of growth, photometric) compared to untreated control
Outline: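 Cryostored conidia in potato dextrose broth added to DMSO compound solution in microtiter plates, incubated at 24° C. Growth inhibition read photometrically 3 to 4 days after application, as percent control versus untreated check; compounds tested at 20 ppm.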

[2] = tested on: Puccinia recondita f. Sp. Tritici; experiment: Puccinia recondita f. sp. tritici / wheat / leaf disc preventative (brown rust); format: in vivo; conditions: foliar, read-out: disease control compared to untreated control leaf disks
Outline: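 Wheat cv. Kanzler leaf segments on agar sprayed with formulated compound in water, inoculated with rust spores 1 day later. Incubated at 19° C, 75% rh, 12 h light/12 h dark; percent disease control versus untreated scored 7 to 9 days after application; tested at 200 ppm.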

Phakopsora pachyrhizi = Phakopsora pachyrhizi / soybean / leaf disc preventative (Asian soybean rust); format: in vivo; conditions: foliar, 200 ppm in the applied formulation, soybean leaf disks, assessed 12 to 14 days after application, read-out: disease control compared to untreated control leaf disks
Outline: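 Soybean leaf discs on water agar were sprayed with formulated compound diluted in water, then inoculated one day later with spore suspension on the lower leaf surface. Held 24-36 h dark at 20° C., 75% RH, then 12 h light/day; percent disease control versus untreated scored 12 to 14 days after application.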

[3] = tested on: Puccinia recondita f. Sp. Tritici; experiment: Puccinia recondita f. sp. tritici / wheat / leaf disc curative (brown rust); format: in vivo; conditions: foliar, read-out: disease control compared to untreated control leaf disks
Outline: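 Wheat cv. Kanzler leaf segments on agar were inoculated with spores, kept dark at 19° C, 75% RH, then sprayed with diluted formulated compound 1 day after inoculation (curative). Incubation continued at 19° C, 75% RH, 12 h light/12 h dark, with percent disease control versus untreated scored 6 to 8 days after application.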

[4] = 20 ppm in the applied formulation, liquid culture in PDB, 24° C., 3 to 4 days after application
[5] = 200 ppm in the applied formulation, wheat leaf segments, preventative, assessed 7 to 9 days after application
[6] = 200 ppm in the applied formulation, wheat leaf segments, curative (applied 1 day after inoculation), assessed 6 to 8 days after application

CCOCCOC(=O)C(=O)NCc1ccc(-c2noc(C(F)(F)F)n2)cc1 [Compound 3.4, 2-ethoxyethyl 2-oxo-2-[[4-[5-(trifluoromethyl)-1,2,4-oxadiazol-3-yl]phenyl]methylamino]acetate]
melting point: 112 to 114 °C | inhibition at 20 ppm [1, 4]: ≥ 80% | pest or weed control at 200 ppm [2, 5]: ≥ 80%

CC1CCC(OC(=O)C(=O)NCc2ccc(-c3noc(C(F)(F)F)n3)cc2)C1 (stereo not drawn) [Compound 3.5, (3-methylcyclopentyl) 2-oxo-2-[[4-[5-(trifluoromethyl)-1,2,4-oxadiazol-3-yl]phenyl]methylamino]acetate]
melting point: 112 to 116 °C | inhibition at 20 ppm [1, 4]: ≥ 80% | pest or weed control at 200 ppm [2, 5]: ≥ 80%

CO/N=C(\C)C(=O)NCc1ccc(-c2noc(C(F)(F)F)n2)cc1 [Compound 2.9, (2E)-2-methoxyimino-N-[[4-[5-(trifluoromethyl)-1,2,4-oxadiazol-3-yl]phenyl]methyl] propanamide]
melting point: 75.7 to 76.2 °C | pest or weed control at 200 ppm (Phakopsora pachyrhizi): ≥ 80% | inhibition at 20 ppm [1, 4]: ≥ 80% | pest or weed control at 200 ppm [2, 5]: ≥ 80% | pest or weed control at 200 ppm [3, 6]: ≥ 80%

CC(=O)C(=O)NCc1ccc(-c2noc(C(F)(F)F)n2)cc1 [Compound 1.35, 2-oxo-N-[[4-[5-(trifluoromethyl)-1,2,4-oxadiazol-3-yl]phenyl]methyl]propanamide]
melting point: 75.8 to 77.5 °C | pest or weed control at 200 ppm (Phakopsora pachyrhizi): ≥ 80% | inhibition at 20 ppm [1, 4]: ≥ 80% | pest or weed control at 200 ppm [2, 5]: ≥ 80% | pest or weed control at 200 ppm [3, 6]: ≥ 80%

O=C(O)C(=O)NCc1ccc(-c2noc(C(F)(F)F)n2)cc1 [Compound 3.8, 2-oxo-2-[[4-[5-(trifluoromethyl)-1,2,4-oxadiazol-3-yl]phenyl]methylamino]acetic acid]
melting point: 162 to 173 °C | pest or weed control at 200 ppm (Phakopsora pachyrhizi): ≥ 80%

COCCNC(=O)C(=O)Nc1ccc(-c2noc(C(F)(F)F)n2)cc1C [Compound 4.38, N-(2-methoxyethyl)-N′-[2-methyl-4-[5-(trifluoromethyl)-1,2,4-oxadiazol-3-yl]phenyl] oxamide]
melting point: 126 to 130 °C | pest or weed control at 200 ppm (Phakopsora pachyrhizi): ≥ 80% | inhibition at 20 ppm [1, 4]: ≥ 80% | pest or weed control at 200 ppm [2, 5]: ≥ 80% | pest or weed control at 200 ppm [3, 6]: ≥ 80%

CO/N=C(\C#N)C(=O)NCc1ccc(-c2noc(C(F)(F)F)n2)cc1 [Compound 2.13, (1E)-N-methoxy-2-oxo-2-[[4-[5-(trifluoromethyl)-1,2,4-oxadiazol-3-yl]phenyl]methylamino] acetimidoyl cyanide]
melting point: 130 to 131 °C | inhibition at 20 ppm [1]: ≥ 80%

CN(Cc1ccc(-c2noc(C(F)(F)F)n2)cc1)C(=O)C(N)=O [Compound 4.30, N′-methyl-N′-[[4-[5-(trifluoromethyl)-1,2,4-oxadiazol-3-yl]phenyl]methyl] oxamide]
melting point: 120 to 125 °C | pest or weed control at 200 ppm (Phakopsora pachyrhizi): ≥ 80% | inhibition at 20 ppm [1, 4]: ≥ 80% | pest or weed control at 200 ppm [2, 5]: ≥ 80% | pest or weed control at 200 ppm [3, 6]: ≥ 80%

CO/N=C(\C#N)C(=O)N(Cc1ccc(-c2noc(C(F)(F)F)n2)cc1)OC [Compound 2.14, (1E)-N-methoxy-2-[methoxy-[[4-[5-(trifluoromethyl)-1,2,4-oxadiazol-3-yl]phenyl]methyl]amino]-2-oxo-acetimidoyl cyanide]
melting point: 67 to 68 °C | inhibition at 20 ppm [1]: ≥ 80% | pest or weed control at 200 ppm [2]: ≥ 80% | pest or weed control at 200 ppm [3]: ≥ 80%

Cc1cc(-c2noc(C(F)(F)F)n2)ccc1NC(=O)C(=O)N(C)C [Compound 4.37, N′,N′-dimethyl-N-[2-methyl-4-[5-(trifluoromethyl)-1,2,4-oxadiazol-3-yl]phenyl]oxamide]
melting point: 79 to 89 °C | pest or weed control at 200 ppm (Phakopsora pachyrhizi): ≥ 80% | inhibition at 20 ppm [1, 4]: ≥ 80% | pest or weed control at 200 ppm [2, 5]: ≥ 80% | pest or weed control at 200 ppm [3, 6]: ≥ 80%

CON1CCC(N(C)C(=O)C(=O)NCc2ccc(-c3noc(C(F)(F)F)n3)cc2)CC1 [Compound 4.44, N′-(1-methoxy-4-piperidyl)-N′-methyl-N-[[4-[5-(trifluoromethyl)-1,2,4-oxadiazol-3-yl]phenyl]methyl] oxamide]
melting point: 123 to 125 °C | pest or weed control at 200 ppm (Phakopsora pachyrhizi): ≥ 80% | inhibition at 20 ppm [1, 4]: ≥ 80% | pest or weed control at 200 ppm [2, 5]: ≥ 80% | pest or weed control at 200 ppm [3, 6]: ≥ 80%

CCOC(=O)C(=O)NCc1ccc(-c2noc(C(F)(F)F)n2)cc1 [Compound 3.9, ethyl 2-oxo-2-[[4-[5-(trifluoromethyl)-1,2,4-oxadiazol-3-yl]phenyl]methylamino] acetate]
melting point: 112 to 116 °C | pest or weed control at 200 ppm (Phakopsora pachyrhizi): ≥ 80% | inhibition at 20 ppm [1, 4]: ≥ 80% | pest or weed control at 200 ppm [2, 5]: ≥ 80%

O=C(NCc1ccc(-c2noc(C(F)(F)F)n2)cc1)C(=O)OC1CCSC1 (stereo not drawn) [Compound 3.6, tetrahydrothiophen-3-yl 2-oxo-2-[[4-[5-(trifluoromethyl)-1,2,4-oxadiazol-3-yl]phenyl]methylamino]acetate]
melting point: 102 to 105 °C | inhibition at 20 ppm [1, 4]: ≥ 80% | pest or weed control at 200 ppm [2, 5]: ≥ 80%

CNC(=O)C(=O)N(Cc1ccc(-c2noc(C(F)(F)F)n2)cc1)OC [Compound 4.35, N′-methoxy-N-methyl-N′-[[4-[5-(trifluoromethyl)-1,2,4-oxadiazol-3-yl]phenyl]methyl] oxamide]
melting point: 87.7 to 88.8 °C | pest or weed control at 200 ppm (Phakopsora pachyrhizi): ≥ 80% | inhibition at 20 ppm [1, 4]: ≥ 80% | pest or weed control at 200 ppm [2, 5]: ≥ 80% | pest or weed control at 200 ppm [3, 6]: ≥ 80%

O=C(NCc1ccc(-c2noc(C(F)(F)F)n2)cc1)C(=O)N1CCCCC1 [Compound 4.40, 2-oxo-2-(1-piperidyl)-N-[[4-[5-(trifluoromethyl)-1,2,4-oxadiazol-3-yl]phenyl]methyl] acetamide]
melting point: 104 to 108 °C | pest or weed control at 200 ppm (Phakopsora pachyrhizi): ≥ 80% | inhibition at 20 ppm [1, 4]: ≥ 80% | pest or weed control at 200 ppm [2, 5]: ≥ 80% | pest or weed control at 200 ppm [3, 6]: ≥ 80%

CN(C)C(=O)C(=O)NCc1ccc(-c2noc(C(F)(F)F)n2)cc1Cl [Compound 4.96, N-[[2-chloro-4-[5-(trifluoromethyl)-1,2,4-oxadiazol-3-yl]phenyl]methyl]-N′,N′-dimethyl-oxamide]
pest or weed control at 200 ppm (Phakopsora pachyrhizi): ≥ 80% | inhibition at 20 ppm [1, 4]: ≥ 80% | pest or weed control at 200 ppm [2, 5]: ≥ 80% | pest or weed control at 200 ppm [3, 6]: ≥ 80%

CCC(=O)C(=O)N(Cc1ccc(-c2noc(C(F)(F)F)n2)cc1)OC [Compound 1.89, N-methoxy-2-oxo-N-[[4-[5-(trifluoromethyl)-1,2,4-oxadiazol-3-yl]phenyl]methyl]butanamide]
pest or weed control at 200 ppm (Phakopsora pachyrhizi): ≥ 80% | inhibition at 20 ppm [1, 4]: ≥ 80% | pest or weed control at 200 ppm [2, 5]: ≥ 80% | pest or weed control at 200 ppm [3, 6]: ≥ 80%
